Structures can show the parent of a compound that is named as a salt. Where two headings read alike, the source gives them in different places.
Experiments:
GHS1A-receptor = target: T1, GHS1A-receptor (Homo sapiens, UniProt Q92847); assay: Ghrelin-agonism in HEK293 cells (intracellular calcium, FLIPR); format: cell-based; details: calcium fluorescence (fluo-4 or Kit-3), EC50 in M
T1 construct: expressed in transfected cells; host or cells: HEK293
Procedure: One day before the experiment, HEK293 cells, permanently transfected with the gene sequence for expression of the GHS1A-receptor, were seeded in poly-D-Lysine coated 96-well plates with clear bottom, and allowed to grow to […] of confluence on the next day.
Then, cells were incubated with the calcium-sensitive intracellular fluorescent probe fluo-4 or Kit-3 for 1 h at 37° C. Fluorescence representing free intracellular calcium in the cells was measured in a FLIPR-system (excitation at 488 nm, emission>520 nm). Test compounds were added to each well at the desired concentration and the fluorescence signal was simultaneously recorded in all wells. Release of intracellular calcium triggered by activation of the receptors upon addition of the test compound was measured as the fluorescence emitted from the complex of calcium and the fluorescent probe. The drug effect on fluorescence intensity was expressed relative to the maximal fluorescence intensity measured in cells exposed to the calcium-ionophore ionomycin.

NMRI-mice = assay: Acceleration of gastric emptying and small intestinal propulsion in NMRI-mice; format: in vivo; details: Mus musculus, sc
Procedure: Male NMRI-mice weighing around 25 gram were fasted for 20 h and had free access to drinking water. Test compounds were administered to the animals by subcutaneous route 30 min before they were given a test meal by oral gavage. The test meal consisted of 0.3 ml of a chocolate nutridrink solution (1.0 kcal/ml) containing phenol red marker (5 mg/ml). Fifteen min after administration of the meal, the mice were sacrificed by CO2 gas inhalation. The phenol red content remaining in the stomach (extracted from the stomach with NaOH) was determined at 557 nm in a spectrophotometer and expressed as extinction units. Small intestinal propulsion was determined as the distance traveled by the phenol red marker through the intestine and expressed as a percentage of total small intestinal length (from the pylorus to the ileo-cecal junction).
The lowest dose that was active for each parameter was noted as the lowest active dose (LAD). Table 12 discloses LAD values.

[1] = HEK293 cells permanently transfected with GHS1A-receptor, read-out: pEC50 (converted)
[2] = lowest active dose, subcutaneous, 30 min before phenol red test meal, active when >60% of animals had phenol red front beyond 85% of small intestinal length, read-out: LAD (mg/kg) Small intestinal propulsion
[3] = lowest active dose, subcutaneous, 30 min before phenol red test meal, stomach content 15 min after meal, active when >60% of animals below 0.9 extinction units, read-out: LAD (mg/kg) Gastric emptying

T1 sequence (Q92847 whole entry): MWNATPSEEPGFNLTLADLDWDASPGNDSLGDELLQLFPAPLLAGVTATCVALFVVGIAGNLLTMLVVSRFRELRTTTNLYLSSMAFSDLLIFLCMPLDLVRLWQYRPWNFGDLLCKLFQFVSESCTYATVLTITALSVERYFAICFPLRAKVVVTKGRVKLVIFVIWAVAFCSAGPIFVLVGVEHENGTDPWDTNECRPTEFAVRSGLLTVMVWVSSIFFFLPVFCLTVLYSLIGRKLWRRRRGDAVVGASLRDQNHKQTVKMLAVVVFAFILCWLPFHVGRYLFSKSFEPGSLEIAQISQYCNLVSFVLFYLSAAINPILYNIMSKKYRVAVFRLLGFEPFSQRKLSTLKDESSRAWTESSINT

EC50 (GHS1A-receptor; [1]) [nM] | Structure (SMILES) | minimal effective dose (NMRI-mice; [2]) [mg/kg] | minimal effective dose (NMRI-mice; [3]) [mg/kg] | other results
 | COCCN(C)CCCC1(O)c2ccccc2CCCC1c1ccc(OC)cc1 (racemic) (as salt: oxalate) [Compound 70] |  |  | melting point: 132.2 °C
 | Cc1ccc(C2CCCc3ccccc3C2(O)CCCN2CCN(C)CC2)cc1 (racemic) (as salt: oxalate) [Compound 33] |  |  | melting point: 219 °C
 | CN(C)CCCC1(O)c2ccccc2CCCC1c1ccccc1 (single isomer, unassigned) (as salt: oxalate) [Compound 105] |  |  | melting point: 178 °C
 | CCN(CC)CCCC1(O)c2ccccc2CCCC1c1ccc(OC)cc1 (racemic) (as salt: oxalate) [Compound 67] |  |  | melting point: 153 °C
 | Cc1ccc(C2CCCc3ccccc3C2(O)CCCN(C)C)cc1 (racemic) (as salt: oxalate) [Compound 29] |  |  | melting point: 161.8 °C
 | Cc1cccc(C2CCCc3ccccc3C2(O)CCCN2CCOCC2)c1 (racemic) (as salt: oxalate) [Compound 25] |  |  | melting point: 204.8 °C
 | CN(C)CCCC1(O)c2ccccc2CCCC1c1ccc(Cl)cc1 (single isomer, unassigned) (as salt: oxalate) [Compound 3] |  |  | melting point: 168.7 °C
63.1 | CN(C)CCCC1(O)c2ccccc2CCCC1c1ccc2c(c1)OCO2 (racemic) [Compound 88] | > 10 | > 10 | 
251 | Cc1ccc([C@H]2CCCc3ccccc3[C@]2(O)CCCN(C)C)cn1 [Compound 12] | > 10 | > 10 | 
 | OC1(CCCN2CCCCC2)c2ccccc2CCCC1c1ccc(F)cc1F (racemic) (as salt: oxalate) [Compound 59] |  |  | melting point: 211.5 °C
 | CNCCCC1(O)c2ccccc2CCCC1c1ccc(C)cc1 (racemic) (as salt: oxalate) [Compound 27] |  |  | melting point: 235.8 °C
398 | CNCCC[C@@]1(O)c2ccccc2OCC[C@@H]1c1ccc(C)cc1 [Compound 11] | > 10 | > 10 | 
 | Oc1ccc([C@H]2CCCc3ccccc3[C@]2(O)CCCN2CCOCC2)cc1 (relative stereo) [Compound 7] |  |  | melting point: 177.1 °C
 | CCN(CC)CCCC1(O)c2ccccc2CCCC1c1cccc(Cl)c1 (racemic) (as salt: oxalate) [Compound 41] |  |  | melting point: 160.3 °C
3980 | CC(=O)N1CCN(CCCC2(O)c3ccccc3CCCC2c2ccc(F)cc2F)CC1 (racemic) [Compound 60] | 10 | > 10 | 
 | CCN(CC)CCCC1(O)c2ccccc2CCCC1c1ccc(F)cc1F (racemic) (as salt: oxalate) [Compound 57] |  |  | melting point: 160.3 °C
63.1 | COCCN(C)CCCC1(O)c2ccccc2CCCC1c1ccc(F)cc1 (racemic) [Compound 54] | > 40 | > 40 | 
794 | Cc1ccc(C2CCOc3ccccc3C2(O)CCCN(C)C)cn1 (racemic) [Compound 99] | > 10 | 10 | 
10 | COc1cc(C2CCCc3ccccc3C2(O)CCCN(C)C)ccc1Cl (racemic) [Compound 72] | > 10 | > 10 | 
631 | COc1cncc(C2CCCc3ccccc3C2(O)CCCN(C)C)c1 (racemic) [Compound 83] | > 10 | > 10 | 
 | COc1ccc(C2CCCc3ccccc3C2(O)CCCN(C)C)cc1 (racemic) (as salt: oxalate) [Compound 66] |  |  | melting point: 100 °C
2000 | CN(C)CCCC1(O)c2ccccc2CCCC1c1ccc(O)cc1 (racemic) [Compound 35] | > 10 | > 10 | 
12.6 | CN(C)CCCC1(O)c2ccccc2CCCC1c1ccc(F)cc1 (racemic) [Compound 52] | > 10 | > 10 | 

EC50 (GHS1A-receptor; [1]) [nM] | Structure (SMILES) | minimal effective dose (NMRI-mice; [2]) [mg/kg] | minimal effective dose (NMRI-mice; [3]) [mg/kg] | other results
7940 | COc1ccc(C2CCOc3ccccc3C2(O)CCCN(C)C)cn1 (racemic) [Compound 102] | > 10 | > 10 | 
50.1 | CN(C)CCCC1(O)c2ccccc2CCCC1c1cncc(Cl)c1 (racemic) [Compound 81] | > 10 | > 10 | 
39.8 | CN(C)CCC[C@@]1(O)c2ccccc2CCC[C@@H]1c1ccc(Cl)cc1 (racemic) [Compound 1] | 2.5 | 2.5 | 
50.1 | COCCN(C)CCCC1(O)c2ccccc2CCCC1c1cccc(Cl)c1 (racemic) [Compound 42] | > 10 | > 10 | 
126 | COCCN(C)CCCC1(O)c2ccccc2CCCC1c1ccc(F)cc1F (racemic) [Compound 58] | > 10 | > 10 | 
251 | COc1ccc(C2CCCc3ccccc3C2(O)CCCN(C)C)cc1 (racemic) [Compound 66] | 10 | > 10 | 
200 | CCN(CC)CCCC1(O)c2ccccc2CCCC1c1ccc(Cl)cc1 (racemic) [Compound 46] | 10 | 10 | 
 | COc1cccc([C@H]2CCCc3ccccc3[C@]2(O)CCCN(C)C)c1 (racemic) [Compound 14, (±)cis-5-(3-Dimethylamino-propyl)-6-(3-methoxy-phenyl)-6,7,8,9-tetrahydro-5H-benzocyclohepten-5-ol oxalate] |  |  | EC50 (GHS1A-receptor; pEC50, HEK293 cells permanently transfected with GHS1A-receptor): 12.6 nM; minimal effective dose (NMRI-mice; read-out: LAD (mg/kg) Gastric emptying): 10 mg/kg; minimal effective dose (NMRI-mice; read-out: LAD (mg/kg) Small intestinal propulsion): > 10 mg/kg
31.6 | OC1(CCCN2CCCC2)c2ccccc2CCCC1c1ccc(Cl)cc1 (racemic) [Compound 48] | > 10 | > 10 | 
63.1 | CCN(CC)CCCC1(O)c2ccccc2OCCC1c1ccc(C)cc1 (racemic) [Compound 93] | 10 | > 10 | 
15.8 | Cc1ccc(C2CCCc3ccccc3C2(O)CCCN(C)C)cc1 (racemic) [Compound 29] | 10 | 10 | 
25.1 | CN(C)CCCC1(O)c2ccccc2CCCC1c1ccc(Br)cc1 (racemic) [Compound 38] | > 10 | > 10 | 
5.01 | CCN(CC)CCCC1(O)c2ccccc2CCCC1c1ccc(Cl)c(OC)c1 (racemic) [Compound 74] | > 40 | > 40 | 
20 | CCN(CC)CCCC1(O)c2ccccc2CCCC1c1ccc(F)cc1 (racemic) [Compound 53] | > 10 | > 10 | 
79.4 | COCCN(C)CCCC1(O)c2ccccc2CCCC1c1ccc(C)cc1 (racemic) [Compound 30] | > 10 | 10 | 
251 | COCCN(C)CCC[C@@]1(O)c2ccccc2CCC[C@@H]1c1ccc(Cl)cc1 (relative stereo) [Compound 13] | > 10 | 10 | 
15.8 | CN(C)CCCC1(O)c2ccccc2CCCC1c1ccccc1 (single isomer, unassigned) [Compound 105] | > 10 | 10 | 
50.1 | CN(C)CCCC1(O)c2ccccc2OCCC1c1ccc(F)c(F)c1 (racemic) [Compound 95] | > 10 | > 10 | 
10 | CCN(CC)CCCC1(O)c2ccccc2OCCC1c1ccc(Cl)c(OC)c1 (racemic) [Compound 98] | 10 | 10 | 
63.1 | Cc1ccc(C2CCOc3ccccc3C2(O)CCCN(C)C)cc1 (racemic) [Compound 92] | > 10 | > 10 | 
398 | CCN(CC)CCCC1(O)c2ccccc2CCCC1c1ccc(OC)c(OC)c1 (racemic) [Compound 78] | > 10 | > 10 | 
31.6 | CN(C)CCCC1(O)c2ccccc2OCCC1c1ccc(Cl)cc1 (racemic) [Compound 94] | 2.5 | 10 | 
25.1 | COc1cc(C2CCOc3ccccc3C2(O)CCCN(C)C)ccc1Cl (racemic) [Compound 97] | 2.5 | 2.5 | 
